Experimental data as given in PMC3781034, “A Small-Animal Pharmacokinetic/Pharmacodynamic PET Study of Central Serotonin 1A Receptor Occupancy by a Potential Therapeutic Agent for Overactive Bladder” (PLoS ONE, 2013).

Key:
micturition interval = test: 5-HT1A receptor agonist (8-OH-DPAT)-induced model of OAB, cystometry; assay type: in vivo, female SD rats; details: intravenous infusion 0.06 mg/kg/h, female SD rats
Method: Catheter implantations and cystometric investigations were performed based on the reported method [14]. Briefly, on the day before the cystometric experiment, female SD rats were initially anesthetized with pentobarbital (50 mg/kg ip). Catheters were inserted into the femoral vein, the dome of the stomach and the dome of the bladder. In the cystometric study, the bladder catheter was connected to an infusion pump and a pressure transducer (DX-312; Nihon Kohden Co., Tokyo, Japan) by three-way stopcock. Saline was infused into the bladder and femoral vein. After bladder pressure was stabilized, 8-OH-DPAT (0.06 mg/kg/h) was infused into the femoral vein instead of saline. Bladder pressure was monitored with a pressure transducer and a pressure amplifier (AP-601G; Nihon Kohden), and recorded on a pen recorder (WT-645G; Nihon Kohden). The following three micturition intervals (i.e., intervals between consecutive peaks of bladder pressure induced at the time of bladder content evacuation) were obtained: (1) basal micturition interval (intervals before 8-OH-DPAT administration), (2) pre-administration micturition interval, (intervals immediately before administration of E2110 or vehicle), and (3) post-administration micturition interval (intervals observed between 1 and 2 hr after administration of E2110 or vehicle). […] E2110 (0.03, 0.1 or 0.3 mg/kg) or vehicle was administered to four groups of eight conscious rats orally.
Data are expressed as mean ± standard error of mean (S.E.M). In the pharmacological study, the statistical significance of differences between the vehicle- and E2110-treated groups was tested using one-way analysis of variance (ANOVA) followed by Dunnett’s multiple comparison test. A probability (p) value of <0.05 (two-sided) was considered statistically significant. All statistical analyses were performed using the SAS software package version 8.1 or 8.2 (SAS Institute Japan Ltd., Tokyo, Japan).

rat 5-HT1A receptor = target: T1, rat 5-HT1A receptor (Rattus norvegicus, UniProt P19327); test: Binding assay in rat hippocampal membrane fraction ([3H]MPPF); details: saturation binding, rat hippocampal membranes, Scatchard plot
T1 construct: from tissue; host or cells: rat hippocampus, membrane (microsomal) fraction
T1 sequence (P19327 1-422): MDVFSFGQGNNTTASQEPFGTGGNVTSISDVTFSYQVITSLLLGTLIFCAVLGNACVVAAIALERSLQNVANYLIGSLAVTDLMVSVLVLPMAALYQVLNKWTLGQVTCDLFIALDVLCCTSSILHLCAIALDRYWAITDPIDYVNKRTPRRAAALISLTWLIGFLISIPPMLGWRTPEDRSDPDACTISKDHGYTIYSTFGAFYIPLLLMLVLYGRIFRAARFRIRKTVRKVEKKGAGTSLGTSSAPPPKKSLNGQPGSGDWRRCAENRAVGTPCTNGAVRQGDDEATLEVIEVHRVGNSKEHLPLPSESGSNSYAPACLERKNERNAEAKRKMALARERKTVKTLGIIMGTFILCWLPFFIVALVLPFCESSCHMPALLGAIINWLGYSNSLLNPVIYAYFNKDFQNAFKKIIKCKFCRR
Method: Rat hippocampal samples were weighed, homogenized in 10-fold volume of 50 mM Tris-HCl (pH 7.4) on an ice bath, and centrifuged (50,000×g, 4°C, 20 min). The precipitate was further homogenized in a 10-fold volume of 50 mM Tris-HCl (pH 7.4) on an ice bath and centrifuged (50,000×g, 4°C, 20 min). The obtained precipitate was homogenized in 50 mM Tris-HCl (pH 7.4) to render a concentration of 100 mg tissue eq./mL. The obtained microsomal fraction was stored as a receptor stock solution at -80°C until use. […] MPPF in a total 1-ml reaction volume at 25°C for 60 min. The reaction was terminated, and bound radioactivity was separated from free radioligands by filtering and washing three times with 3 ml of 50 mM Tris-HCl (pH 7.4). The radioactivity content of the filters in 5 ml of liquid scintillator (Atomlight; PerkinElmer) was counted by TR2500 scintillation counter (PerkinElmer Life & Analytical Sciences). The specific binding was determined as the difference between total and nonspecific binding, measured in the absence and presence of 100 µM 5-HT. Data were analyzed by Scatchard plot to estimate equilibrium constant (Kd) values. For the competition experiments, binding assays were carried out using 0.3 nM [^3H] […] MPPF according to the following equation:
Ki=IC50/1+[radioligand]/Kd (1)
where [radioligand] means the concentration of the radioligand used.

5-HT1A [1] = details: hippocampus, PET, isoflurane-anesthetized rats; cited from earlier work
5-HT1A [2] = details: hippocampal, unanesthetized rats; cited from earlier work

CCCN(CCC)C1CCc2cccc(O)c2C1 (stereo not shown) [8-OH-DPAT, 8-hydroxy-2-(di-n-propylamino)-tetralin, reference compound]
micturition interval versus basal level (micturition interval): markedly decreased

COc1ccccc1N1CCN(CCN(C(=O)c2ccc(F)cc2)c2ccccn2)CC1 [[^3H] MPPF, [^3H] 2'-methoxyphenyl-(N-2'-pyridinyl)-p-fluoro-benzamidoethyipiperazine, reference compound]
Kd (rat 5-HT1A receptor): 920 pM

CC(C)NCC(O)COc1cccc2[nH]ccc12 (stereo not shown) [pindolol]
in vivo ED50 for 5-HT1A RO (5-HT1A [1]): 5.6 mg/kg
ED50 for 5-HT1A RO, ex vivo autoradiography (5-HT1A [2]): 8.5 mg/kg
